Measured values: patent US10314820B2, “Imidazole-based heterocyclic compounds” (priority 2014, dated 2019)

Legend:
[1] = tested on: Human hepatocytes (HepaRG cells); test: Human cytotoxicity assay in vitro (CellTiter-Glo), hepatocytes; type: cell-based; conditions: hepatocyte cytotoxicity score; 24 h exposure
[2] = tested on: Human keratinocytes (HaCaT cells); test: Human cytotoxicity assay in vitro (CellTiter-Glo), keratinocytes; type: cell-based; conditions: keratinocyte cytotoxicity score; 24 h exposure

SMILES	cytotoxicity cell line H [1]	cytotoxicity cell line K [2]
Cc1[nH]c(-c2ccc(-c3ccc(Cl)cc3)s2)nc1-c1ccccc1 [Compound 6]	0 (compounds without signs of cell viability loss at concentrations of 50 μM or higher)	0 (compounds not causing loss of cell viability at concentrations of 50 μM or higher)
Cc1[nH]c(-c2ccc(-c3ccc(F)cc3)s2)nc1-c1ccccc1 [Compound 7]	1 (compounds not causing a loss of viability at concentrations between 25 and 50 μM)	2 (compounds causing>50% inhibition of cell viability at 25 μM)
Cc1[nH]c(-c2cc(C)n(-c3ccc(Cl)cc3)c2C)nc1-c1ccccc1 [Compound 8]	2	1 (compounds causing less than 50% inhibition of cell viability at 50 μM)
Cc1[nH]c(-c2cc(C)n(-c3ccc(F)cc3F)c2C)nc1-c1ccccc1 [Compound 9]	3	2 (compounds causing>50% inhibition of cell viability at 25 μM)
Cc1[nH]c(-c2cc(C)n(-c3ccc(F)c(F)c3F)c2C)nc1-c1ccccc1 [Compound 10]	3	2 (compounds causing>50% inhibition of cell viability at 25 μM)
Cc1[nH]c(-c2csc(-c3ccc(F)cc3)n2)nc1-c1ccccc1 [Compound 11]	1 (compounds not causing a loss of viability at concentrations between 25 and 50 μM)	2 (compounds causing>50% inhibition of cell viability at 25 μM)
Cc1[nH]c(-c2ccc(-c3cccc(Cl)c3)s2)nc1-c1ccccc1 [Compound 12]	1 (compounds not causing a loss of viability at concentrations between 25 and 50 μM)	2 (compounds causing>50% inhibition of cell viability at 25 μM)
Cc1[nH]c(-c2ccc(-c3cccc(Br)c3)s2)nc1-c1ccccc1 [Compound 13]	1 (compounds not causing a loss of viability at concentrations between 25 and 50 μM)	1 (compounds causing less than 50% inhibition of cell viability at 50 μM)
Cc1[nH]c(-c2csc(-c3cccc(Br)c3)n2)nc1-c1ccccc1 [Compound 14]	1 (compounds not causing a loss of viability at concentrations between 25 and 50 μM)	1 (compounds causing less than 50% inhibition of cell viability at 50 μM)
Cc1nc(-c2ccc(-c3ccc(Cl)cc3Cl)o2)[nH]c1-c1ccc(F)cc1 [Compound 16]	3	1 (compounds causing less than 50% inhibition of cell viability at 50 μM)
Cc1nc(-c2ccc(-c3ccccc3C(F)(F)F)o2)[nH]c1-c1ccccc1Cl [Compound 20]	3	0 (compounds not causing loss of cell viability at concentrations of 50 μM or higher)
Cc1nc(-c2ccc(-c3ccccc3OC(F)(F)F)o2)[nH]c1-c1cccc(Cl)c1 [Compound 21]	3	2 (compounds causing>50% inhibition of cell viability at 25 μM)
Cc1[nH]c(-c2ccc(-c3ccccc3C(F)(F)F)o2)nc1-c1cccc(Cl)c1 [Compound 22]	–	2 (compounds causing>50% inhibition of cell viability at 25 μM)
Cc1[nH]c(-c2ccc(-c3ccccc3C(F)(F)F)o2)nc1-c1ccc(Br)cc1 [Compound 25]	0 (compounds without signs of cell viability loss at concentrations of 50 μM or higher)	0 (compounds not causing loss of cell viability at concentrations of 50 μM or higher)
Cc1[nH]c(-c2ccc(-c3ccccc3OC(F)(F)F)o2)nc1-c1ccc(C(F)(F)F)cc1 [Compound 26]	1 (compounds not causing a loss of viability at concentrations between 25 and 50 μM)	0 (compounds not causing loss of cell viability at concentrations of 50 μM or higher)
C#Cc1ccc(-c2nc(-c3ccc(-c4ccccc4C(F)(F)F)o3)[nH]c2C)cc1 [Compound 27]	1 (compounds not causing a loss of viability at concentrations between 25 and 50 μM)	2 (compounds causing>50% inhibition of cell viability at 25 μM)
CCc1ccc(-c2[nH]c(-c3ccc(-c4ccccc4C(F)(F)F)o3)nc2C)cc1 [Compound 28]	1 (compounds not causing a loss of viability at concentrations between 25 and 50 μM)	0 (compounds not causing loss of cell viability at concentrations of 50 μM or higher)
Cc1[nH]c(-c2ccc(-c3ccccc3OC(F)(F)F)o2)nc1Cc1ccc(Br)cc1 [Compound 30, 4-(4-Bromo-benzyl)-5-methyl-2-[5-(2-trifluoromethoxy-phenyl)-furan-2-yl]-1H-imidazole]	3	3 (compounds causing more than 50% inhibition of cell viability at 10 μM)
Cc1[nH]c(-c2ccn(-c3ccccc3C(F)(F)F)c2)nc1-c1ccccc1 [Compound 33]	–	3 (compounds causing more than 50% inhibition of cell viability at 10 μM)

SMILES	cytotoxicity cell line H [1]	cytotoxicity cell line K [2]
Cc1[nH]c(-c2cc(C)n(-c3cccc(C(F)(F)F)c3)c2C)nc1-c1ccccc1 [Compound 36]	3	2 (compounds causing>50% inhibition of cell viability at 25 μM)
Cc1nc(-c2ccc(-c3cccc(OC(F)(F)F)c3)o2)[nH]c1-c1ccc(F)cc1 [Compound 37]	3	2 (compounds causing>50% inhibition of cell viability at 25 μM)
Cc1[nH]c(-c2ccc(-c3cccc(C(F)(F)F)c3)o2)nc1-c1ccc(F)cc1 [Compound 38]	1 (compounds not causing a loss of viability at concentrations between 25 and 50 μM)	2 (compounds causing>50% inhibition of cell viability at 25 μM)
Cc1nc(-c2ccc(-c3ccc(Cl)c(OC(F)(F)F)c3)o2)[nH]c1-c1ccc(F)cc1 [Compound 43]	3	–
Cc1[nH]c(-c2ccc(-c3ccc(C(F)(F)F)cc3)s2)nc1-c1ccccc1 [Compound 46]	1 (compounds not causing a loss of viability at concentrations between 25 and 50 μM)	1 (compounds causing less than 50% inhibition of cell viability at 50 μM)
Cc1[nH]c(-c2ccc(-c3ccc(OC(F)(F)F)cc3)o2)nc1-c1ccc(Cl)cc1 [Compound 48]	2	1 (compounds causing less than 50% inhibition of cell viability at 50 μM)
Cc1[nH]c(-c2ccc(-c3ccc(OC(F)(F)F)cc3Cl)o2)nc1-c1ccc(F)cc1 [Compound 51]	3	3 (compounds causing more than 50% inhibition of cell viability at 10 μM)
Cc1ccc(-c2ccc(-c3nc(-c4ccccc4)c(C)[nH]3)s2)cc1 [Compound 54]	1 (compounds not causing a loss of viability at concentrations between 25 and 50 μM)	1 (compounds causing less than 50% inhibition of cell viability at 50 μM)
Cc1ccc(-c2ncc(-c3nc(-c4ccccc4)c(C)[nH]3)s2)cc1 [Compound 55]	1 (compounds not causing a loss of viability at concentrations between 25 and 50 μM)	–
Cc1ccc(-c2nc(-c3nc(-c4ccccc4)c(C)[nH]3)cs2)cc1 [Compound 56]	1 (compounds not causing a loss of viability at concentrations between 25 and 50 μM)	3 (compounds causing more than 50% inhibition of cell viability at 10 μM)
Cc1ccc(-c2nc(-c3nc(-c4ccccc4)c(C)[nH]3)co2)cc1 [Compound 57]	1 (compounds not causing a loss of viability at concentrations between 25 and 50 μM)	3 (compounds causing more than 50% inhibition of cell viability at 10 μM)
Cc1[nH]c(-c2cc(C)n(-c3ccc(C(C)C)cc3)c2C)nc1-c1ccccc1 [Compound 58]	3	2 (compounds causing>50% inhibition of cell viability at 25 μM)
Cc1[nH]c(-c2cc(C)n(-c3ccc4c(c3)CCC4)c2C)nc1-c1ccccc1 [Compound 59]	2	2 (compounds causing>50% inhibition of cell viability at 25 μM)
FC(F)(F)Oc1ccccc1-c1ccc(-c2ncc(-c3ccccc3)[nH]2)o1 [Compound 63]	2	–
FC(F)(F)c1ccccc1-c1ccc(-c2nc(Cl)c(-c3ccccc3)[nH]2)o1 [Compound 65]	2	–
FC(F)(F)Oc1ccccc1-c1ccc(-c2nc(-c3ccccc3Cl)c[nH]2)o1 [Compound 67]	2	2 (compounds causing>50% inhibition of cell viability at 25 μM)
FC(F)(F)Oc1ccccc1-c1ccc(-c2nc(-c3ccc(Cl)cc3Cl)c[nH]2)o1 [Compound 68]	2	2 (compounds causing>50% inhibition of cell viability at 25 μM)
Cc1[nH]c(-c2coc(-c3ccccc3C(F)(F)F)c2)nc1-c1ccccc1 [Compound 72]	3	2 (compounds causing>50% inhibition of cell viability at 25 μM)
